# Measured values from patent US8846928B2 (Portola Pharmaceuticals, Inc., priority 2010, dated 2014).
# Target: T1, full length active recombinant SYK enzyme (Homo sapiens, UniProt P43405)
# T1 construct: full length active recombinant SYK enzyme (Millipore, Calif.); purchased Millipore
# Experiment: Inhibition of Syk tyrosine phosphorylation activity (LANCE TR-FRET kinase assay)
# Format: biochemical
row,SMILES,IC50
1,"NC(=O)c1cc(F)c(N[C@H]2CCCNC2)nc1Nc1ccc2ncccc2c1 [Example 143, (S)-5-fluoro-6-(piperidin-3-ylamino)-2-(quinolin-6-ylamino)nicotinamide]",> 1 µM
2,"Cc1cc(Nc2cc(N[C@@H]3CCCC[C@@H]3N)ccc2C(N)=O)on1 [Example 147, 4-((1R,2S)-2-aminocyclohexylamino)-2-(3-methylisoxazol-5-ylamino)benzamide]",0.1 to 1 µM
3,"NC(=O)c1cc(F)c(N[C@@H]2CCCC[C@@H]2N)nc1Nc1cncnc1 [Example 152, 6-((1R,2S)-2-aminocyclohexylamino)-5-fluoro-2-(pyrimidin-5-ylamino)nicotinamide]",0.1 to 1 µM
4,"NC(=O)c1cc(F)c(N[C@@H]2CCCC[C@@H]2N)nc1Nc1cncc(-n2cccn2)c1 [Example 155, 2-(5-(1H-pyrazol-1-yl)pyridin-3-ylamino)-6-((1R,2S)-2-aminocyclohexylamino)-5-fluoronicotinamide]",> 1 µM
5,"NC(=O)c1ccc(N[C@@H]2CCCC[C@@H]2N)nc1Nc1cncc(-c2ncccn2)c1 [Example 157, 6-((1R,2S)-2-aminocyclohexylamino)-2-(5-(pyrimidin-2-yl)pyridin-3-ylamino)nicotinamide]",0.01 to 0.1 µM
6,NC(=O)c1cc(F)c(N[C@@H]2CCCC[C@@H]2N)nc1Nc1cncc(-n2ccnc2)c1 [Example 160],0.01 to 0.1 µM
7,"COc1ncc(Nc2nc(N[C@@H]3CCCC[C@@H]3N)c(F)cc2C(N)=O)cn1 [Example 166, 6-((1R,2S)-2-aminocyclohexylamino)-5-fluoro-2-(2-methoxypyrimidin-5-ylamino)nicotinamide]",0.1 to 1 µM
8,NC(=O)c1cc(F)c(N[C@@H]2CCCC[C@@H]2N)nc1Nc1ccncc1 [Example 175],0.01 to 0.1 µM
9,"NC(=O)c1cc(F)c(N[C@@H]2CCCC[C@@H]2N)nc1Nc1ccc(C(F)(F)F)nc1 [Example 176, 6-((1R,2S)-2-aminocyclohexylamino)-5-fluoro-2-(6-(trifluoromethyl)pyridin-3-ylamino)nicotinamide]",0.01 to 0.1 µM
10,"NC(=O)c1cc(F)c(N[C@@H]2CCCC[C@@H]2N)nc1Nc1cncs1 [Example 177, 6-((1R,2S)-2-aminocyclohexylamino)-5-fluoro-2-(thiazol-5-ylamino)nicotinamide]",> 1 µM
11,"NC(=O)c1cc(F)c(N[C@@H]2CCCC[C@@H]2N)nc1Nc1cnsc1 [Example 178, 6-((1R,2S)-2-aminocyclohexylamino)-5-fluoro-2-(isothiazol-4-ylamino)nicotinamide]",0.01 to 0.1 µM
12,NC(=O)c1ccc(N[C@@H]2CCCC[C@@H]2N)nc1Nc1cncc(F)c1 [Example 179],0.001 to 0.01 µM
13,"NC(=O)c1ccc(N[C@@H]2CCCC[C@@H]2N)nc1Nc1cccnc1 [Example 180, 6-((1R,2S)-2-aminocyclohexylamino)-2-(pyridin-3-ylamino)nicotinamide]",0.001 to 0.01 µM
14,"NC(=O)c1ccc(N[C@@H]2CCCC[C@@H]2N)nc1Nc1ccncc1 [Example 181, 6-((1R,2S)-2-aminocyclohexylamino)-2-(pyridin-4-ylamino)nicotinamide]",0.001 to 0.01 µM
15,"Cc1cc(Nc2nc(N[C@@H]3CCCC[C@@H]3N)ccc2C(N)=O)sn1 [Example 182, 6-((1R,2S)-2-aminocyclohexylamino)-2-(3-methylisothiazol-5-ylamino)nicotinamide]",0.001 to 0.01 µM
16,"NC(=O)c1cc(F)c(N[C@@H]2CCCC[C@@H]2N)nc1Nc1cnc2cccnc2c1 [Example 183, 2-(1,5-naphthyridin-3-ylamino)-6-((1R,2S)-2-aminocyclohexylamino)-5-fluoronicotinamide]",0.001 to 0.01 µM
17,NC(=O)c1ccc(N[C@@H]2CCCC[C@@H]2N)nc1Nc1cnc2cccnc2c1 [Example 184],0.001 to 0.01 µM
18,"NC(=O)c1ccc(N[C@@H]2CCCC[C@@H]2N)nc1Nc1cnc2ccccc2c1 [Example 185, 6-((1R,2S)-2-aminocyclohexylamino)-2-(quinolin-3-ylamino)nicotinamide]",0.001 to 0.01 µM
19,"NC(=O)c1ccc(N[C@@H]2CCCC[C@@H]2N)nc1Nc1ccc2cccnc2c1 [Example 186, 6-((1R,2S)-2-aminocyclohexylamino)-2-(quinolin-7-ylamino)nicotinamide]",0.001 to 0.01 µM
20,"NC(=O)c1cc(F)c(N[C@@H]2CCCC[C@@H]2N)nc1Nc1cccc(-n2cccc2)c1 [Example 187, 2-(3-(1H-pyrrol-1-yl)phenylamino)-6-((1R,2S)-2-aminocyclohexylamino)-5-fluoronicotinamide]",0.001 to 0.01 µM
21,"NC(=O)c1cc(F)c(N[C@@H]2CCCC[C@@H]2N)nc1Nc1ccc(-n2cccc2)cc1 [Example 188, 2-(4-(1H-pyrrol-1-yl)phenylamino)-6-((1R,2S)-2-aminocyclohexylamino)-5-fluoronicotinamide]",0.001 to 0.01 µM
22,"NC(=O)c1cc(F)c(N[C@@H]2CCCC[C@@H]2N)nc1Nc1cccc(-c2nccs2)c1 [Example 189, 6-((1R,2S)-2-aminocyclohexylamino)-5-fluoro-2-(3-(thiazol-2-yl)phenylamino)nicotinamide]",0.001 to 0.01 µM
23,"NC(=O)c1cc(F)c(N[C@@H]2CCCC[C@@H]2N)nc1Nc1ccnc(-n2cccn2)c1 [Example 190, 2-(2-(1H-pyrazol-1-yl)pyridin-4-ylamino)-6-((1R,2S)-2-aminocyclohexylamino)-5-fluoronicotinamide]",0.01 to 0.1 µM

# Next, values leading:
row,IC50,SMILES
1,0.001 to 0.01 µM,"NC(=O)c1ccc(N[C@@H]2CCCC[C@@H]2N)nc1Nc1ccc2ncccc2c1 [Example 134, 2-(quinolin-6-ylamino)-6-((1R,2S)-2-aminocyclohexylamino)nicotinamide]"
2,0.001 to 0.01 µM,"NC(=O)c1ccc(N[C@@H]2CCCC[C@@H]2N)nc1Nc1ccc2cnccc2c1 [Example 135, 2-(isoquinolin-6-ylamino)-6-((1R,2S)-2-aminocyclohexylamino)nicotinamide]"
3,0.001 to 0.01 µM,"Cn1ncc2c(Nc3nc(N[C@@H]4CCCC[C@@H]4N)c(F)cc3C(N)=O)cccc21 [Example 136, 2-(1-methyl-1H-indazol-4-ylamino)-6-((1R,2S)-2-aminocyclohexylamino)-5-fluoronicotinamide]"
4,0.001 to 0.01 µM,"NC(=O)c1ccc(N[C@@H]2CCCC[C@@H]2N)nc1Nc1ccc2ccncc2c1 [Example 137, 2-(isoquinolin-7-ylamino)-6-((1R,2S)-2-aminocyclohexylamino)nicotinamide]"
5,0.001 to 0.01 µM,"NC(=O)c1ccc(N[C@@H]2CCCC[C@@H]2N)nc1Nc1cccc(-n2cncn2)c1 [Example 138, 2-(3-(1H-1,2,4-triazol-1-yephenylamino)-6-(1R,2S)-2-aminocyclohexylamino)nicotinamide]"
6,0.001 to 0.01 µM,"Cn1ncc2cc(Nc3nc(N[C@@H]4CCCC[C@@H]4N)c(F)cc3C(N)=O)ccc21 [Example 139, 2-(1-methyl-1H-indazol-5-ylamino)-6-((1R,2S)-2-aminocyclohexylamino)-5-fluoronicotinamide]"
7,0.001 to 0.01 µM,"NC(=O)c1cc(F)c(N[C@@H]2CCCC[C@@H]2N)nc1Nc1cnc2ncccc2c1 [Example 150, 2-(1,8-naphthyridin-3-ylamino)-6-((1R,2S)-2-aminocyclohexylamino)-5-fluoronicotinamide]"
8,0.001 to 0.01 µM,"NC(=O)c1cc(F)c(N[C@@H]2CCCC[C@@H]2N)nc1Nc1ccnc2ncccc12 [Example 151, 2-(1,8-naphthyridin-4-ylamino)-6-((1R,2S)-2-aminocyclohexylamino)-5-fluoronicotinamide]"
9,0.001 to 0.01 µM,"Cn1cnc2cc(Nc3nc(N[C@@H]4CCCC[C@@H]4N)c(F)cc3C(N)=O)ccc21 [Example 153, 6-((1R,2S)-2-aminocyclohexylamino)-5-fluoro-2-(1-methyl-1H-benzo[d]imidazol-5-ylamino)nicotinamide]"
10,0.001 to 0.01 µM,"NC(=O)c1cc(F)c(N[C@@H]2CCCC[C@@H]2N)nc1Nc1cncc(-n2nccn2)c1 [Example 154, 2-(5-(2H-1,2,3-triazol-2-yl)pyridin-3-ylamino)-6-((1R,2S)-2-aminocyclohexylamino)-5-fluoronicotinamide]"
11,0.001 to 0.01 µM,"NC(=O)c1cc(F)c(N[C@@H]2CCCC[C@@H]2N)nc1Nc1cncc(-c2ncccn2)c1 [Example 156, 6-((1R,2S)-2-aminocyclohexylamino)-5-fluoro-2-(5-(pyrimidin-2-yl)pyridin-3-ylamino)nicotinamide]"
12,0.001 to 0.01 µM,NC(=O)c1ccc(N[C@@H]2CCCC[C@@H]2N)nc1Nc1cncc(-n2nccn2)c1 [Example 158]
13,0.001 to 0.01 µM,"NC(=O)c1ccc(N[C@@H]2CCCC[C@@H]2N)nc1Nc1cncc(-n2cccn2)c1 [Example 159, 2-(5-(1H-pyrazol-1-yl)pyridin-3-ylamino)-6-((1R,2S)-2-aminocyclohexylamino)nicotinamide]"
14,0.001 to 0.01 µM,"NC(=O)c1ccc(N[C@@H]2CCCC[C@@H]2N)nc1Nc1cncc(-n2ccnc2)c1 [Example 161, 2-(5-(1H-imidazol-1-yl)pyridin-3-ylamino)-6-((1R,2S)-2-aminocyclohexylamino)nicotinamide]"
15,0.001 to 0.01 µM,"NC(=O)c1cc(F)c(N[C@@H]2CCCC[C@@H]2N)nc1Nc1cncc(-c2nccs2)c1 [Example 162, 6-((1R,2S)-2-aminocyclohexylamino)-5-fluoro-2-(5-(thiazol-2-yl)pyridin-3-ylamino)nicotinamide]"
16,0.001 to 0.01 µM,NC(=O)c1ccc(N[C@@H]2CCCC[C@@H]2N)nc1Nc1cncc(-c2nccs2)c1 [Example 163]
17,0.001 to 0.01 µM,COc1cncc(Nc2nc(N[C@@H]3CCCC[C@@H]3N)ccc2C(N)=O)c1 [Example 164]
18,0.001 to 0.01 µM,NC(=O)c1ccc(N[C@@H]2CCCC[C@@H]2N)nc1Nc1cnc2ncccc2c1 [Example 165]
19,0.001 to 0.01 µM,"NC(=O)c1cc(F)c(N[C@@H]2CCCC[C@@H]2N)nc1Nc1cccnc1 [Example 174, 6-((1R,2S)-2-aminocyclohexylamino)-5-fluoro-2-(pyridin-3-ylamino)nicotinamide]"
